Antioxidant properties data for one substance are collected here from patent publication US6492302B1, “Compositions for the protection of plants against the stress of oxidation” (priority 1998, dated 2002).

A short description of the test: antioxidant properties of lipo-amino acids.

For the substance butyryl-cystine, the antioxidant properties result is listed as “does not possess these properties”.
